The source of these data is patent US11731977B2, “SGC stimulators” (Cyclerion Therapeutics, Inc., priority 2016, dated 2023).

In this test the test system is male Long Evans rats. The test can be described thus: Novel Object Recognition (NOR) test, MK-801-induced memory disruption (Example 10). In kind it is in vivo, rat. To be noted: for reversal of MK-801-induced memory deficits (Recognition Index): Galantamine 1 mg/kg, vs Vehicle/MK-801; for Recognition Index, Mean: 0 to 3 minute time bin. From the text:
Objective. To assess the efficacy of compounds of the invention in reversing memory disruption induced by MK-801 using the Novel Object Recognition (NOR) test in male Long Evans rats. The NOR is a test of recognition learning and memory retrieval, which takes advantage of the spontaneous preference of rodents to investigate a novel object compared with a familiar one (Ennaceur and Delacour, 1988). […] The NOR test has been employed extensively to assess the potential cognitive-enhancing properties of novel test compounds. […] In the present study, a memory saving model was used to test the novel compound—MK-801 (Dizocilpine), an uncompetitive antagonist of the NMD A receptor was used to cause deficit of recognition memory. Compounds of the invention were evaluated through its efficacy in reversing memory impairment.
Animals. Adult male Long-Evans rats (275-299 gram at arrival from Envigo, Indianapolis, Ind.) were used in this study. Rats were placed in the experimental rooms and assigned unique identification numbers (tail marks). Rats were housed 2 per cage in polycarbonate cages with filter tops and acclimated for at least 7 days prior to testing. Animal room was maintained in a 12/12 h light/dark cycle (lights on at 07.00 EST), 22±1° C. and relative humidity at approximately 50%. Food and water were provided ad libitum. All animals were examined, handled and weighed prior to the study to assure adequate health and to minimize the non-specific stress associated with testing. Each animal was randomly assigned across the treatment groups. The experiments were conducted during the animal's light cycle phase.
MK-801 (0.1 mg/kg; Sigma-Aldrich) was dissolved in saline and injected IP 15 min prior to NOR training.
Galantamine (1 mg/kg; Tocris) was dissolved in saline and injected IP 15 minutes prior to training.
Compound I-1 (0.01, 0.1, and 1 mg/kg) was oral administrated 60 minutes prior to training. The dose volume was 4 ml/kg
Experimental procedures. NOR test was conducted in an open-field arena (40×40 cm) placed in a sound-attenuated room under dimmed lighting. Each rat was tested separately and care was taken to remove olfactory/taste cues by cleaning the arena and test objects with 70% alcohol between trials and rats. All training and testing trials were video-taped and scored by an observer blind to treatments.
On Days 1 and 2, rats were allowed to freely explore the arena (no objects inside) for a 5-minute habituation period. On Day 3 (training and testing day), rats were administered vehicle (saline), galantamine or compound solutions followed by MK-801 or vehicle (saline). After the pretreatment time, each animal was placed into the test arena in the presence of two identical objects. Each rat was placed in the arena facing the same direction at the same position, and the time spent actively exploring the objects during a 3-minute training period (T1) was recorded. The rat was returned to its home cage following training. NOR test (T2) was conducted 1 hours after T1. Each rat was placed back into the test arena in the presence of one familiar object and one novel object for 5 minutes, and the time spent exploring both objects was recorded during 0-1, 0-3 and 0-5 min time ranges. The presentation order and position of the objects (left/right) in T2 was randomized between rats to prevent bias from order or place preference.
Statistical Analysis. Data of NOR test (T2) were expressed as Recognition Index, which is defined as the ratio of the time spent exploring the novel object over the total time spent exploring both objects (Novel/(Familiar+Novel)×100%) during the test session. Data were analyzed by using one-way ANOVA followed by Fisher's LSD post hoc test on 0-1, 0-3 and 0-5 minute time range separately, with significance set at P<0.05. […] And then statistical outliers that fell above or below two standard deviations from the mean were removed from the final analysis. […]

Regarding `Fc1ccccc1Cc1nc(-c2nc(C(F)(F)F)n[nH]2)cn2ccnc12` [Compound I-1, 8-(2-fluorobenzyl)-6-(3-(trifluoromethyl)-1H-1,2,4-triazol-5-yl)imidazo[1,2-a]pyrazine], the “reversal of MK-801-induced memory deficits (Recognition Index)” value (shortened to “reversal … (Recognition Index)”) (0-1 min time range, Compound I-1 1 mg/kg) was “significantly reversed”; the “reversal … (Recognition Index)” value (0-3 minute time range, Compound I-1 0.1 and 1 mg/kg) is “significantly reversed”; the “reversal … (Recognition Index)” value (0-5 minute time range, Compound I-1 1 mg/kg) was “significantly reversed”. The “Recognition Index, Mean” value by setting is: (I-1 (0.1 mg/kg) oral + MK-801) 60.1%; (I-1 (1 mg/kg) oral + MK-801) 64.8%; (I-1 (10 mg/kg) oral + MK-801) 66.8%.
